{"source": "patent US20100081699A1", "about": "“YEAST PLATFORM CONSTRUCTION AND SCREENING METHODS” (Bioalvo-Servicos ,Investigacao e Desenvolvimento em …, priority 2006, published 2010)", "target": "T1, human IDO (Homo sapiens, UniProt P14902)", "T1 construct": "The IDO gene was obtained from the IMAGE consortium as a 1586 bps fragment cloned in the vector pCMV-SPORT6; expressed in transfected cells", "T1 sequence (P14902 whole entry, the tested form may be a part)": "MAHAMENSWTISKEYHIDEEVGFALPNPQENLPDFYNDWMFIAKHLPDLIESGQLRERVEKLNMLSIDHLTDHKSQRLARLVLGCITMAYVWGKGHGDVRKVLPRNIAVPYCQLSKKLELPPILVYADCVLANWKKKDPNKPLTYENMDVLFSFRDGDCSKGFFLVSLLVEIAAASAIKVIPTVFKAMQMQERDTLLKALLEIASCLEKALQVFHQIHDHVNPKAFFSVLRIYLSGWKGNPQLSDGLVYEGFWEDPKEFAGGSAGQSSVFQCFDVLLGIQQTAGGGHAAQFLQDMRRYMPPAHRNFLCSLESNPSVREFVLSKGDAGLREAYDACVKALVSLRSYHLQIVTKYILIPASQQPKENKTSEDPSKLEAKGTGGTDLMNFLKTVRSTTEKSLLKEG", "assay": "Growth inhibition of BLOCKADE cells with small molecule compounds (life/death screen)", "format": "cell-based", "conditions": "S. cerevisiae BLOCKADE cells, minimum medium with 2% galactose, 10, 5, 2.5 and 1 μM compound, 3 days at 30° C.; WT cells at 10 μM as cytotoxicity control", "protocol": "Cells were pre-grown on a mixture of 1.2% glucose and 0.8% galactose until reaching early exponential phase (OD=1-2). The cells were washed three times with water and then resuspended in fresh selective medium containing 2% galactose, in order to fully activate IDO expression. Cells were dispensed into 96-well plates and inhibitor compounds were added to the cell culture at concentrations of 10, 5, 2.5 and 1 μM. Growth was monitored during 3 days at 30° C. under agitation. Compounds were selected from diverse libraries.\nIDO inhibitory compounds were identified as those that repressed the growth of the cells. Possible cytotoxic effects of the compounds were identified by growing the wild type strain in the same condition at a concentration of 10 μM. Compounds inhibiting both BLOCKADE cells and wild type strains were considered as cytotoxic and therefore not selected for further development. Compounds inhibiting only BLOCKADE cells, but not the wild type strains were considered as hits, potential IDO inhibitory compounds.", "data": [{"smiles": "O=C(O)CCn1c2ccc(Br)cc2c2cc(Br)ccc21", "note": "[BLK200769]", "values": [{"measurement": "Inhibition of growth of BLOCKADE cells", "value": "inhibition"}]}]}
